Data published in ChEMBL document CHEMBL5252642, “Design and synthesis of naturally-inspired SARS-CoV-2 inhibitors” (RSC Med Chem, 2023).
Calls of active or inactive are those of the source. The calls are words filed in the database; no cut-off is given here.

Experiments:
[1] = Selectivity index, ratio of CC50 for human A549-ACE2 cells to EC50 for antiviral activity against SARS-CoV-2 Omicron BA1 variant infected human A549-ACE2 cells; format: toxicity; conditions: read-out: Ratio CC50/EC50
SARS-CoV-2 = assay: Antiviral activity against SARS-CoV-2 Omicron BA1 variant infected human A549-ACE2 cells assessed as inhibition of viral replication; format: functional, organism-based; conditions: Severe acute respiratory syndrome coronavirus 2, Omicron BA1, A549-ACE2
[2] = tested on: Severe acute respiratory syndrome coronavirus 2; assay: Inhibition of SARS-CoV2 main protease C145A mutant by measuring luciferase signal at 0.02 to 125 uM by reverse-nanoluciferase reporter assay; conditions: dose 0.02-125 µM

SMILES | selectivity ratio [1] | EC50 (SARS-CoV-2) | inhibition [2]
Cc1ccc(S(=O)(=O)N2C[C@@]34CN(Cc5nc6ccccc6s5)C[C@@H](O3)[C@H]3C(=O)CC[C@]2(C(C)C)[C@H]34)cc1 | 6.9 | – | –
Cc1ccc(S(=O)(=O)N2C[C@@]34CN(Cc5ccccc5)C[C@@H](O3)[C@H]3[C@@H](Oc5ncccn5)CC[C@]2(C(C)C)[C@H]34)cc1 | 1 | – | –
COc1ccc(CCN2C[C@H]3O[C@]4(C2)CN(S(=O)(=O)c2ccc(C)cc2)[C@]2(C(C)C)C=C[C@H](O)[C@H]3[C@H]42)cc1 | 3.3 | 3.5 µM | inactive
Cc1ccc(S(=O)(=O)N2C[C@@]34CN(Cc5nc6ccccc6s5)C[C@@H](O3)[C@@H]3[C@H]4[C@@]2(C(C)C)CC[C@@H]3O)cc1 | 1.6 | – | –
COc1cc(CN2C[C@H]3O[C@]4(C2)CN(S(=O)(=O)c2ccc(C)cc2)[C@]2(C(C)C)CC[C@H](OCCCN(C)C)[C@H]3[C@H]42)cc(OC)c1 | 5.7 | 4.4 µM | –
COc1cc(CN2C[C@H]3O[C@]4(C2)CN(S(=O)(=O)c2ccc(C)cc2)[C@]2(C(C)C)CC[C@H](O)[C@H]3[C@H]42)cc(OC)c1 | 2.3 | – | –
Cc1ccc(S(=O)(=O)N2C[C@@]34CN(Cc5ccccc5)C[C@@H](O3)[C@H]3C(=O)C=C[C@]2(C(C)C)[C@H]34)cc1 | 0.9 | – | –
Cc1ccc(S(=O)(=O)N2C[C@@]34CN(Cc5ccccc5)C[C@@H](O3)[C@H]3C(=O)CC[C@]2(C(C)C)[C@H]34)cc1 | 0.7 | – | –
COc1ccc(CCN2C[C@H]3O[C@]4(C2)CN(S(=O)(=O)c2ccc(C)cc2)[C@]2(C(C)C)C=CC(=O)[C@H]3[C@H]42)cc1 | 0.5 | – | –
Cc1ccc(S(=O)(=O)N2C[C@@]34CN(Cc5ccccc5)C[C@@H](O3)[C@@H]3[C@H]4[C@@]2(C(C)C)C=C[C@@H]3O)cc1 | > 3 | – | –
Cc1ccc(S(=O)(=O)N2C[C@@]34CN(CCc5c[nH]c6ccccc56)C[C@@H](O3)[C@@H]3[C@H]4[C@@]2(C(C)C)CC[C@@H]3O)cc1 | 1.6 | – | –
Cc1ccc(S(=O)(=O)N2C[C@@]34CN(C(=O)c5ccc(F)cc5N)C[C@@H](O3)[C@@H]3[C@H]4[C@@]2(C(C)C)CC[C@@H]3O)cc1 | 1.4 | – | –
Cc1ccc(S(=O)(=O)N2C[C@@]34CN(C(=O)c5cccs5)C[C@@H](O3)[C@@H]3[C@H]4[C@@]2(C(C)C)CC[C@@H]3O)cc1 | > 3 | – | –
CC(C)C[C@H](NC(=O)OCc1ccccc1)C(=O)N[C@@H](C[C@@H]1CCNC1=O)C(O)S(=O)(=O)O (stereo partly drawn) | – | – | inactive
Cc1ccc(S(=O)(=O)N2C[C@@]34CN(C)C[C@@H](O3)[C@H]3[C@@H](Oc5ncccn5)CC[C@]2(C(C)C)[C@H]34)cc1 | 0.8 | – | –
